What follows are compounds tested against T1, ATM (Homo sapiens, UniProt Q13315) (assay: ATM inhibition test (phosphorylation of Chk2 generated by ionizing radiation, AlphaScreen SureFire)). Conditions: phosphorylated Chk2 in NCI-H460 cells, ionizing radiation 8Gy, 1 hour after test compound treatment; read-out: ATM inhibitory activity.
T1 construct: detecting phosphorylation of Chk2 in a human non-small cell lung cancer cell line NCI-H460 (ATCC company); host or cells: NCI-H460 human non-small cell lung cancer cells
T1 sequence (Q13315 whole entry): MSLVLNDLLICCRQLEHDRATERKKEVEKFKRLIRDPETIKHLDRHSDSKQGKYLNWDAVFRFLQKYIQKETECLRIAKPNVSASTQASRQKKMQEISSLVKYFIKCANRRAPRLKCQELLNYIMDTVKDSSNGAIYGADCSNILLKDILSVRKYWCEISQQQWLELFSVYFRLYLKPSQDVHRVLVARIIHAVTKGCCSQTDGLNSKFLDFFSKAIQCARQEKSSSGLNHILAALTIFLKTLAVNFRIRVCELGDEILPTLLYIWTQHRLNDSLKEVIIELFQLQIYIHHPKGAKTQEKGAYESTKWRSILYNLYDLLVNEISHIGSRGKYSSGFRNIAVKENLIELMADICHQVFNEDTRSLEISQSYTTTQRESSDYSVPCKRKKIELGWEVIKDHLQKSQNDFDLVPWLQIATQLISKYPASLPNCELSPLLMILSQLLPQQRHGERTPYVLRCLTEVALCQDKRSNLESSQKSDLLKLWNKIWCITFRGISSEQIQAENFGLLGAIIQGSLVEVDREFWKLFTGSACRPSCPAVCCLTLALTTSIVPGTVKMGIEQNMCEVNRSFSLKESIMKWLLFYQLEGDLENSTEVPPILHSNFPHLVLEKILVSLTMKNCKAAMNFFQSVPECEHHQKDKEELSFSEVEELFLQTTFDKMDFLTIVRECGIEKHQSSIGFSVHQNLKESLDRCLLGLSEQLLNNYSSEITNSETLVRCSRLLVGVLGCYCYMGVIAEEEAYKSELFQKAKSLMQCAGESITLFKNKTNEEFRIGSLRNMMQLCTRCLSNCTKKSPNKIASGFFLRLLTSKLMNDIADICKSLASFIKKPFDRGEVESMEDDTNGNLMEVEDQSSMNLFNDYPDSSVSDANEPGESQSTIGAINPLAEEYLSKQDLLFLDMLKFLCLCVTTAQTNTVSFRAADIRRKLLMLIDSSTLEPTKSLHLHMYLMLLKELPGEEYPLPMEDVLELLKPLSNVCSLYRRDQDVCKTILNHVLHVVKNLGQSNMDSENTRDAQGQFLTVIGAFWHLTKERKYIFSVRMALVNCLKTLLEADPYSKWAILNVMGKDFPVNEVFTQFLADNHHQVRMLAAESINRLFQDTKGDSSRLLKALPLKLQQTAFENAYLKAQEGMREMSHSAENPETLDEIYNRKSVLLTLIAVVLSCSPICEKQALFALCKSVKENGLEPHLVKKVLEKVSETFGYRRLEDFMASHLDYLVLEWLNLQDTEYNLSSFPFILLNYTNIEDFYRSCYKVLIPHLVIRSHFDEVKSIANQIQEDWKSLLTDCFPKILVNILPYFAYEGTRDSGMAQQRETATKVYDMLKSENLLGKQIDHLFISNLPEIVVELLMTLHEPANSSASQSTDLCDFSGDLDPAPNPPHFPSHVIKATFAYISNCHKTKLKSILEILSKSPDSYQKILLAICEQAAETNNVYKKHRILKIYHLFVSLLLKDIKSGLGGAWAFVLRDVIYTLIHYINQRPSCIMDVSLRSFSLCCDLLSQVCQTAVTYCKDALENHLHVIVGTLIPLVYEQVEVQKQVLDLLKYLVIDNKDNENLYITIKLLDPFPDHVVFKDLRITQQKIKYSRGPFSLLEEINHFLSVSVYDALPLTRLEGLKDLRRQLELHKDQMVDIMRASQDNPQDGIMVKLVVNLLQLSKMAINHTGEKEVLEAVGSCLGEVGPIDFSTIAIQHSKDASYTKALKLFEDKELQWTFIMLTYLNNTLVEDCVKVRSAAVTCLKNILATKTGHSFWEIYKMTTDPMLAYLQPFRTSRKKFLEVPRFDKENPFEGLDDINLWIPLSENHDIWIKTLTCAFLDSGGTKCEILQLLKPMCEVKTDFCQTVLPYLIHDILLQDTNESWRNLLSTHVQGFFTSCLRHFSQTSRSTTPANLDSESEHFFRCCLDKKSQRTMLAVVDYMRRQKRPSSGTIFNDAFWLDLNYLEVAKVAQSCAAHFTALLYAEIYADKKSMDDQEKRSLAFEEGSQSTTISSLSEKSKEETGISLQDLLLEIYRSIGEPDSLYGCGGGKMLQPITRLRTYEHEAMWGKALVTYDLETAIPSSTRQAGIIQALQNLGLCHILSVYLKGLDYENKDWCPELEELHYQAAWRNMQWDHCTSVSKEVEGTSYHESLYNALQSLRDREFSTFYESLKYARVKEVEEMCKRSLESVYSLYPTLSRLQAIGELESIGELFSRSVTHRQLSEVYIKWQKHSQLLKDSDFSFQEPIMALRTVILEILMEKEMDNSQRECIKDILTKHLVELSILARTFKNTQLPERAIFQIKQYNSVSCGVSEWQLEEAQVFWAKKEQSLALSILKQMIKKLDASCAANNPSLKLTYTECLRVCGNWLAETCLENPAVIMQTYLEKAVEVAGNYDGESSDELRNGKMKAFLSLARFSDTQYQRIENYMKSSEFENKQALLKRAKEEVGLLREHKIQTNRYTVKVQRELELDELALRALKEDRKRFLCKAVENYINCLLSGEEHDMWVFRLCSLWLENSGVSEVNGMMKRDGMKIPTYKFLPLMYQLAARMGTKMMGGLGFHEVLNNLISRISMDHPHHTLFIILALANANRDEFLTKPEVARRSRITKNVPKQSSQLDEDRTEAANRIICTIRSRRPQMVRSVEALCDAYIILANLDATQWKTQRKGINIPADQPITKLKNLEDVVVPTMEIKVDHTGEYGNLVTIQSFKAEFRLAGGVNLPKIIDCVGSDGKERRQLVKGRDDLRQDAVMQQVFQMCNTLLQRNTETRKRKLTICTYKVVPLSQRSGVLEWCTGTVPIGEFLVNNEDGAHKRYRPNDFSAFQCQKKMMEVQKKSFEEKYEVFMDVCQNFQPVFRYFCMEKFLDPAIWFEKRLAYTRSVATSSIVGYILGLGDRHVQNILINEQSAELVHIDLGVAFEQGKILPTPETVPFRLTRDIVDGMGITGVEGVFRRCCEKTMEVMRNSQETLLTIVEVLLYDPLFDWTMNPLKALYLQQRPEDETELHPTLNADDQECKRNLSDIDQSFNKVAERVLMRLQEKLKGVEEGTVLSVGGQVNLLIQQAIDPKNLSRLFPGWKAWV
Type: cell-based
Method: ATM inhibitory effects of a test compound were measured by detecting phosphorylation of Chk2 in a human non-small cell lung cancer cell line NCI-H460 (ATCC company). The level of phosphorylated Chk2 generated by an ionizing radiation was measured using AlphaScreen SureFire (TGR Biosciences).
The cells were seeded by 40000 cells per well in 96-well CellBIND® plates (Corning International Inc.), and incubated at 37° C. overnight in 5% CO2. […] 1 hour after a test compound treatment, half of the plates were irradiated with ionizing radiation 8Gy (Faxitron Bioptics, LLC, RX-650 type). The plates irradiated with ionizing radiation and the plates not being irradiated with ionizing radiation were incubated at 37° C. for 1 hour in 5% CO2. […] Subsequent operations were performed according to the instruction book of AlphaScreen SureFire. […] The inhibition ratio was calculated by the following equation. Inhibition ratio (%)=((signal of drug untreated wells in the plates irradiated with ionizing radiation−signal of drug treated wells in the plates irradiated with ionizing radiation)/(signal of drug untreated wells in the plates irradiated with ionizing radiation−signal of drug untreated wells in the plates not being irradiated with ionizing radiation))×100

`COc1ccc(CCN2CCC(Nc3ccc4c(c3)Cc3cccc(-c5cc(N6CCOCC6)cc(=O)[nH]5)c3O4)CC2)cn1` [Example 2-28-38, 6-(7-((1-(2-(6-Methoxypyridin-3-yl)ethyl)piperidin-4-yl)amino)-9H-xanthen-4-yl)-4-morpholino pyridin-2(1H)-one] and `Cc1ccc(CN2CCC(Nc3ccc4c(c3)Cc3cccc(-c5cc(N6CCOCC6)cc(=O)[nH]5)c3O4)CC2)nc1` [Example 2-28-22, 6-(7-((1-((5-Methylpyridin-2-yl)methyl)piperidin-4-yl)amino)-9H-xanthen-4-yl)-4-morpholino pyridin-2(1H)-one] fall in the same range of IC50: 100 to 500 nM for the first, 100 to 500 nM for the second.

`O=c1cc(N2CCOCC2)cc(-c2cccc3c2Sc2ccc(NC4CCCN(C5CCCC5)C4)cc2S3)[nH]1` (centres unmarked) [Example 1-24-5, 6-(7-((1-Cyclopentylpiperidin-3-yl)amino)thianthren-1-yl)-4-morpholino pyridin-2(1H)-one] and `O=c1cc(N2CCOCC2)cc(-c2cccc3c2Sc2ccc(NCCN4CCC(F)(F)CC4)cc2S3)[nH]1` [Example 1-10-1, 6-(7-((2-(4,4-Difluoropiperidin-1-yl)ethyl)amino)thianthren-1-yl)-4-morpholinopyridin-2(1H)-one] fall in the same range of IC50: 100 to 500 nM for the first, 100 to 500 nM for the second.

First: O=C(Nc1ccc2c(c1)Cc1cccc(-c3cc(N4CCOCC4)cc(=O)[nH]3)c1O2)c1cc(Br)ccn1 [Example 2-24, 4-bromo-N-(5-(4-morpholino-6-oxo-1,6-dihydropyridin-2-yl)-9H-xanthen-2-yl)picolinamide]
Second: O=c1cc(N2CCOCC2)cc(-c2cccc3c2Oc2ccc(NCc4cncc(F)c4)cc2C3)[nH]1 [Example 2-2-10, 6-(7-(((5-Fluoropyridin-3-yl)methyl)amino)-9H-xanthen-4-yl)-4-morpholino pyridin-2 (1H)-one]
The IC50 of the first is higher: 500 to 2000 nM for the first, 100 to 500 nM for the second.

Compared with `CN1CCC(Nc2ccc3c(c2)Cc2cccc(-c4cc(N5CCOCC5)cc(=O)[nH]4)c2O3)CC1` [Example 2-3-7, 6-(7-((1-Methylpiperidin-4-yl)amino)-9H-xanthen-4-yl)-4-morpholino pyridin-2(1H)-one], `O=c1cc(N2CCOCC2)cc(-c2cccc3c2Oc2ccc(NC4CCN(Cc5ccoc5)CC4)cc2C3)[nH]1` [Example 2-28-28, 6-(7-((1-(Furan-3-ylmethyl)piperidin-4-yl)amino)-9H-xanthen-4-yl)-4-morpholino pyridin-2(1H)-one] is lower in IC50: 500 to 2000 nM for the first, 100 to 500 nM for the second.

`CC[C@H](N)C(C)Nc1ccc2c(c1)Sc1cccc(-c3cc(N4CCOCC4)cc(=O)[nH]3)c1S2` (stereo partly drawn) [Example 1-20-5, 6-(7-(((3S)-3-Aminopentan-2-yl)amino)thianthren-1-yl)-4-morpholino pyridin-2(1H)-one] and `O=c1cc(N2CCOCC2)cc(-c2cccc3c2Sc2ccc(NCc4ccncn4)cc2S3)[nH]1` [Example 1-12-36, 4-Morpholino-6-(7-((pyrimidin-4-ylmethyl)amino)thianthren-1-yl) pyridin-2(1H)-one] fall in the same range of IC50: 100 to 500 nM for the first, 100 to 500 nM for the second.

First: O=C1CCN1c1cncc(CNc2ccc3c(c2)Sc2cccc(-c4cc(N5CCOCC5)cc(=O)[nH]4)c2O3)c1 [Example 4-8-16, 4-Morpholino-6-(8-(((5-(2-oxoazetidin-1-yl)pyridin-3-yl)methyl)amino)phenoxathiin-4-yl)pyridin-2 (IH)-one]
Second: O=c1cc(N2CCOCC2)cc(-c2cccc3c2Oc2ccc(NCc4cnc5ccccc5c4)cc2C3)[nH]1 [Example 2-2-46, 4-Morpholino-6-(7-((quinolin-3-ylmethyl)amino)-9H-xanthen-4-yl) pyridin-2(1H)-one]
The IC50 of the first is higher: 100 to 500 nM for the first, under 100 nM for the second. The second is the more potent here.

Compared with `O=c1cc(N2CCOCC2)cc(-c2cccc3c2Sc2ccc(NCc4ccncc4)cc2C3)[nH]1` [Example 3-8-2, 4-Morpholino-6-(7-((pyridin-4-ylmethyl)amino)-9H-thioxanthen-4-yl)pyridin-2(1H)-one], `CC(C)(C)OC(=O)N1CCCC(Nc2ccc3c(c2)Cc2cccc(-c4cc(N5CCOCC5)cc(=O)[nH]4)c2O3)CC1` (centres unmarked) [Example 2-3-11, tert-Butyl 4-((5-(4-morpholino-6-oxo-1,6-dihydropyridin-2-yl)-9H-xanthen-2-yl)amino) azepane-1-carboxylate] is lower in IC50: 500 to 2000 nM for the first, 100 to 500 nM for the second. The second is the more potent here.
